Results published in patent US11800869B2, “Use of 6-oxo-1,4,5,6-tetrahydropyridazine-3-carboxylic acid, 1-methyl 6-oxo-1,4,5,6-tetrahydropyridazine-3-carboxylic acid and 1-alkyl-6-oxo-1,4,5,6-tetrahydropyridazine-3-carboxylic acid for improving growth performance in plants” (Advanced Crop Chem LLP, priority 2020, dated 2023).
Marks after values point to notes of the source that are not given here.

Experiments:
Assay type in all cases: in vivo
[1] = tested on: wheat seedlings; assay: Foliar treatment of wheat seedlings, recovery from drought stress (Example 18); design: dose or concentration left out as unconfirmed; details: Drought stressed 10 days then 16 days regrowth
Protocol: Sets of wheat seedlings were given two foliar treatments with 6-oxo-1,4,5,6-tetrahydropyridazine-3-carboxylic acid to examine seedling recovery from drought stress. […] Seedlings were given two foliar treatments: the first at Zadoks GS 12 and at Zadoks GS 14 (FIG. 1). The plants were grown in a greenhouse and fed a standard plant nutrient solution. The plants were drought stressed for 10 days after which water and nutrients were resumed and the plants were allowed to grow for 16 days.

[2] = tested on: wheat plants (Variety Skyfall); assay: Foliar treatment of greenhouse grown wheat, foliar and root biomass (Example 4); details: foliar treatment, 30 days later, Zadocks growth stage 22-24
Protocol: Wheat, corn and pepper seeds were treated with 6-oxo-1,4,5,6-tetrahydropyridizine-3-carboxylic acid (THP) using the same methodology and growth conditions as described in example 1 and the resulting plants were also treated with a light foliar cover spray using an electric hand-held sprayer. (100 g in 200 L water plus 0.25% Nouryon wetter) of 6-oxo-1,4,5,6 tetrahydropyridazine-3-carboxylic acid (30 days post emergence (wheat at Zadoks GS 14 (see FIG. 1), maize at V2, Pepper at 3-4 leaf stage) and then assessed for root and shoot biomass 45 days later. At 75 days post planting the plants were assessed for root and shoot biomass as measured with dry weight. Greenhouse grown wheat plants (Variety […]) were given foliar treatment of 1-methyl 6-oxo-1,4,5,6 tetrahydropyridazine-3-carboxylic acid (MTHP) or 6-oxo-1,4,5,6 tetrahydropyridazine-3-carboxylic acid (THP), utilizing the same methodology as in example 2. Foliar and root biomass were determined 30 days later at Zadocks growth stage 22-24.

[3] = tested on: Corn; assay: Foliar treatment dose series, root and shoot fresh weight, corn (Example 8); details: 35 days post treatment; for Root, FWt: dose 0: 2.3; for Shoot, FWt: dose 0: 6.1
Protocol: Corn and wheat plants were given a foliar treatment […] (as described in Example 2) with 6-oxo-1,4,5,6 tetrahydropyridazine-3-carboxylic acid (THP) and then assessed for root and shoot biomass. Three treatment dosages were applied (Table 2). Plants were grown in a greenhouse with a diurnal cycle of 55-75F with ambient light. The plants were grown in a coarse river sand in 4″ pots with 0.5 g of Osmacote/pot. The mean root and shoot fresh weights were assessed at 35 days post treatment.

[4] = tested on: field grown wheat; assay: Field grown wheat plots, foliar treatment, yield (Example 12); details: foliar treatment at Zadocks GS 30
Protocol: Field grown wheat plants (Var: AWC 13) were given foliar treatment at Zadoks GS 25-26 (FIG. 1) of 6-oxo-1,4,5,6 tetrahydropyridazine-3-carboxylic acid (THP) or 1-methyl 6-oxo-1,4,5,6 tetrahydropyridazine-3-carboxylic acid (MTHP) both at 100 g in 200 L water plus 0.25% Nouryon wetter. Plants were grown under standard UK wheat growing cultural practice (https://andb.org.uk/wheatgg). Yield was assessed at harvest.
Nine field grown wheat plots (20 m^2) were established. In each plot, the area was split into two and one half treated with 6-oxo-1,4,5,6 tetrahydropyridazine-3-carboxylic acid (THP) to assess for effects on yield. Plants were treated at Zadocks GS 30 as described in example 6 under standard cultural practices. The average yield response compared to the untreated plants across all sites was 0.596 tons per hectare.

[5] = tested on: Wheat; assay: Seed treatment plus foliar spray, root and shoot biomass and emergence, wheat (Example 2)
Protocol: (§1) Winter wheat variety AWC 13 seeds were treated with either 6-oxo-1,4,5,6-tetrahydropyridazine-3-carboxylic acid (THP) or 1-methyl 6-oxo-1,4,5,6 tetrahydropyridazine-3-carboxylic acid (MTHP) at an effective rate of 10g diluted in 2 L water plus 0.25% Nouryon wetter and applied to 1 ton of seed. These seed were planted in coarse river sand and grown in a greenhouse under ambient light at the greenhouse at 21° C. Plants were irrigated every other day with water containing 50% strength Hoaglands solution. Plants were assessed for emergence and biomass accumulation 30 days after planting. The plants from seeds treated with 6-oxo-1,4,5,6-tetrahydropyridizin-3-carboxylic acid or 1-methyl 6-oxo-1,4,5,6 tetrahydropyridazine-3-carboxylic acid had larger root biomasses (0.83, 0.85 g, dry weight/plant) compared with plants from untreated seeds (0.65 g dry weight/plant). Wheat, corn and pepper seeds were treated with 6-oxo-1,4,5,6-tetrahydropyridizine-3-carboxylic acid (THP) using the same methodology and growth conditions as described in example 1 and the resulting plants were also treated with a light foliar cover spray using an electric hand-held sprayer. (100 g in 200 L water plus 0.25% Nouryon wetter) of 6-oxo-1,4,5,6 tetrahydropyridazine-3-carboxylic acid (30 days post emergence (wheat at Zadoks GS 14 (see FIG. 1), maize at V2, Pepper at 3-4 leaf stage) and then assessed for root and shoot biomass 45 days later. At 75 days post planting the plants were assessed for root and shoot biomass as measured with dry weight.

[6] = tested on: Pepper; assay: Seed treatment plus foliar spray, root and shoot biomass and emergence, pepper (Example 2)
Protocol: as §1

[7] = tested on: Soybean seeds, cv. Viking; assay: Soybean seed treatment, root nodulation by Bradyrhizobium japonicum (Example 19); details: seed treatment 0.1 mM; greenhouse 75° F; 4 weeks after planting; untreated 655.8 mg
Protocol: Soybean seed were treated with 6-oxo-1,4,5,6 tetrahydropyridazine-3-carboxylic acid to examine the effect on root nodulation by a nitrogen fixing bacterium.
Soybean seeds, cv. Viking, were treated with 6-oxo-1,4,5,6 tetrahydropyridazine-3-carboxylic acid (0.1 mM) and the resulting seedlings were grown in a greenhouse at 75° F. under natural light during a winter season. The extent of root nodulation by Bradyrhizobium japonicum, a nitrogen fixing bacterium was determined 4 weeks after planting. Plants from the untreated seeds averaged 655.8 mg of nodules per plant versus 763.7 mg for the plants from treated seeds.

[8] = foliar dose 50 g/ha in 200 L/ha
[9] = foliar dose 100 g/ha in 200 L/ha
[10] = foliar dose 200 g/ha in 200 L/ha
[11] = seed treatment plus foliar spray 100 g in 200 L, 75 days post planting
[12] = seed treatment, % Emergence at 10 days post planting

Structure (SMILES): O=C1CCC(C(=O)O)=NN1 [THP, 6-oxo-1,4,5,6 tetrahydropyridazine-3-carboxylic acid]
- Number of seed heads, avg. ([1]; untreated drought stressed 7.1, normal water 5.4): 8.3
- Total foliar fresh wt., avg. ([1]; untreated drought stressed 28.2, normal water 32.3): 33.4 g
- Dry Weight Shoot ([2]; Con 0.55): 0.74 g
- Dry Weight Root ([2]; Con 1.03): 1.45 g
- Root, FWt [3, 8]: 2.7 g
- Shoot, FWt [3, 8]: 7.8 g
- Root, FWt [3, 9]: 3.4 g
- Shoot, FWt [3, 9]: 7.2 g
- Root, FWt [3, 10]: 1.8 g
- Shoot, FWt [3, 10]: 5.1 g
- Yield as Percent Increase over Untreated ([4]; Field 1): 6.25* %
- Yield as Percent Increase over Untreated ([4]; Field 2): 8.7* %
- Yield as Percent Increase over Untreated ([4]; Field 3): −0.3%
- Yield as Percent Increase over Untreated ([4]; Field 4): 13.9* %
- Yield as Percent Increase over Untreated ([4]; Field 5): 3.0%
- Yield as Percent Increase over Untreated ([4]; Field 6): 3.3%
- Yield as Percent Increase over Untreated ([4]; Field 7): 6.5%
- Yield as Percent Increase over Untreated ([4]; Field 8): 9.8* %
- Yield as Percent Increase over Untreated ([4]; Field 9): 8.1* %
- average yield response compared to the untreated plants across all sites ([4]; nine field plots): 0.596 tons per hectare
- Root Dry Weight, % Difference vs Untreated [5, 11]: 12%
- Shoot Dry Weight, % Difference vs Untreated [5, 11]: 7%
- Emergence, % Difference vs Untreated [5, 12]: 16%
- Root Dry Weight, % Difference vs Untreated [6, 11]: 19%
- Shoot Dry Weight, % Difference vs Untreated [6, 11]: 9%
- Emergence, % Difference vs Untreated [6, 12]: 24%
- nodules per plant [7]: 763.7 mg
